This note sets out measurements from patent EP4806892A1, “CEREBLON E3 UBIQUITIN LIGASE INHIBITOR” (GAN & LEE PHARMACEUTICALS CO., LTD., priority 2023, dated 2025).

The structures appear in SMILES notation. pIC50: −log10 of the molar value.

What all share (assay type): cell-based
In one assay the target is T1, AR protein (Homo sapiens, UniProt P10275, T878A).
T1 construct: AR-positive human prostate cancer cells (LNCaP, cell source: ATCC); host or cells: LNCaP
In words: AR protein degradation in LNCaP cells (Western blot). As to conditions: 8 hours. As for the experimental part:
AR-positive human prostate cancer cells (LNCaP, cell source: ATCC) were cultured in RPMI 1640 (ATCC catalog number 30-2001) containing 10% FBS (Hyclone catalog number SH30406.05), and the cells were inoculated into a six-well microplate (Thermo catalog number 140675) at a density of 1.5 × 10^5 cells/well. After the cells were cultured overnight in a carbon dioxide incubator (ESCO), the prepared compound of the present invention and the positive control sample ARV-766 (source: energy chemical) solution of different concentrations were added at a volume of 1 µL/well to make the final concentrations of the compound and the positive control sample reach 100nM and 10nM, respectively. At the same time, the corresponding solvent control was set and cultured for 8 hours. After 8 hours of culture, the culture medium was removed, the cells were washed with PBS, and RIPA lysis buffer containing 1% Protease Inhibitor Cocktail was added. After lysis and centrifugation, the total protein extract was obtained, and the protein concentration in the extract was detected by BCA method. Protein electrophoresis was performed using SDS-PAGE, and then the protein was transferred to a PVDF (Millipore Sigma catalog number PSRP010R5) membrane at a constant voltage of 100V for 60 minutes. The PVDF membrane was placed in a 5% milk powder 1×TBST solution and blocked at room temperature for 1 hour. The primary antibody solution (Anti-Androgen receptor, Cell Signaling Technology catalog number: 5153S; 1:2000 dilution) was prepared and incubated at 4°C overnight. The primary antibody solution was discarded and the PVDF membrane was washed with 1×TBST for 5 minutes each time, three times. The secondary antibody solution (Thermo, catalog number SA5-35571; 1:7500 dilution) was prepared and incubated at room temperature for 1 hour. The secondary antibody solution was discarded and the PVDF membrane was washed with 1×TBST for 5 minutes each time, three times. A dual-color infrared laser imaging system (Licor catalog number Odyssey CLX) was used for Western membrane imaging. The Image Studio software was used to analyze the grayscale of the bands. GAPDH protein bands were also detected for each sample as an internal reference. The AR protein degradation rate of the compound and the positive control sample was calculated based on the grayscale of the protein bands. Among them, "A" means degradation rate ≥ 50%, "B" means 50%> degradation rate ≥ 20%, "C" means 20% degradation rate ≥ 10%, and "D" means degradation rate less than 10%.

In a further assay the test system is VCaP cell. In words: VCaP cell proliferation inhibition (WST-8). The conditions noted are these: Homo sapiens, VCaP cells, 168 hours, read-out: IC50 for inhibiting VCAP cell proliferation. The method, then: VCaP cells (ATCC, CRL-2876) were cultured in DMEM (Gibco, 11995-065) complete medium containing 10% fetal bovine serum (Hyclone, SH30406.05). On the first day of the experiment, VCaP cells were seeded at a density of 15,000 cells/well in a 96-well plate using DMEM medium containing 10% fetal bovine serum, with 100 µL of cell suspension per well, and cultured overnight in a cell culture incubator at 37°C and 5% CO2. […] The final concentration of the compound was 9 concentration points of 5-fold serial dilution starting from 10 µM. The wells to which 100 µL of DMEM medium containing 10% fetal bovine serum was added were set as blank controls and cultured in a cell culture incubator at 37°C and 5% CO2 for 168 hours. On the ninth day, the 96-well cell culture plate was removed and 1/10 volume of WST-8 (Beytime, C0040) reagent was added to each well. The absorbance at 450 nm was measured using a microplate reader (TECAN, F50).
On the technique in general: Tetrazolium dyes change colour on reduction, which living cells bring about.

The test system of another assay is LNCAP cell. In words: LNCaP cell proliferation inhibition (WST-8). As to conditions: Homo sapiens, LNCaP FGC cells, 96 hours, read-out: IC50 for inhibiting LNCAP cell proliferation. The method, then:
LNCaP FGC cells (ATCC, CLR-1740) were cultured in RPMI 1640 (ATCC, 30-2001) complete medium supplemented with 10% fetal bovine serum (Hyclone, SH30406.05). On the first day of the experiment, LNCaP FGC cells were seeded at a density of 5,000 cells/well in 96-well plates using RPMI 1640 medium supplemented with 10% fetal bovine serum, with 100 µL of cell suspension per well. The cells were cultured overnight in a 37°C, 5% CO2 cell incubator. On the second day, 100 µL of different concentrations of the compound to be tested and the positive control sample ARV-766 (source: Energy Chemical) prepared in culture medium were added to each well. The final concentration of the compound was 9 concentration points of 5-fold serial dilution starting from 10 µM. The wells to which 100 µL of RPMI 1640 culture medium containing 10% fetal bovine serum was added were set as controls. The cells were cultured in a cell culture incubator at 37°C and 5% CO2 for 96 hours. On the sixth day, the 96-well cell culture plate was removed, and 1/10 volume of WST-8 (Beytime, C0040) reagent was added to each well. The absorbance at 450 nm was detected using a microplate reader (TECAN, F50).

T1 sequence (P10275 whole entry T878A): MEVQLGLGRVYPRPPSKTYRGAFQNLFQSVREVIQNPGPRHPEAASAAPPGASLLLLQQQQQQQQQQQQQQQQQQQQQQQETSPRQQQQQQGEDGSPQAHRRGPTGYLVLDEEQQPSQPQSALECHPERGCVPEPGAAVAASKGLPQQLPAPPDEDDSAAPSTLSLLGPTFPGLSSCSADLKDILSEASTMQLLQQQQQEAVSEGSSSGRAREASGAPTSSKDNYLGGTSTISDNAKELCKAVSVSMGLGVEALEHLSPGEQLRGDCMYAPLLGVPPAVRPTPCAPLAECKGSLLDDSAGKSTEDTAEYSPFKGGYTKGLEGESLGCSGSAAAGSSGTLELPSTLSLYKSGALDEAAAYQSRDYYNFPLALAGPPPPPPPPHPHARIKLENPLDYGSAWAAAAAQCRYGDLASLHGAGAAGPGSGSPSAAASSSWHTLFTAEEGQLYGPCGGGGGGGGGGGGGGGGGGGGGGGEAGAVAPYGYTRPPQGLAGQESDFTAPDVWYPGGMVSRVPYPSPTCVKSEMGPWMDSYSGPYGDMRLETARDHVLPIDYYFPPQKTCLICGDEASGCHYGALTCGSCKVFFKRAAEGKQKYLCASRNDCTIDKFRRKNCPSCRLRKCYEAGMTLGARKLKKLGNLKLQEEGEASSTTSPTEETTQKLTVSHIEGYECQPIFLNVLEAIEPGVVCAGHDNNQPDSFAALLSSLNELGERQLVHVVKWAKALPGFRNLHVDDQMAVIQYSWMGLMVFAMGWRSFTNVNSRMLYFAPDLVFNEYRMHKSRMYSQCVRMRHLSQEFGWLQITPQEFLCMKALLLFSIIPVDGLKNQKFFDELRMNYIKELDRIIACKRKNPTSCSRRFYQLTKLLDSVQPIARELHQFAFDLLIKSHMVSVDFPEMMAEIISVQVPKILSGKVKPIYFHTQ
T1 sequence (Q96SW2 whole entry partner): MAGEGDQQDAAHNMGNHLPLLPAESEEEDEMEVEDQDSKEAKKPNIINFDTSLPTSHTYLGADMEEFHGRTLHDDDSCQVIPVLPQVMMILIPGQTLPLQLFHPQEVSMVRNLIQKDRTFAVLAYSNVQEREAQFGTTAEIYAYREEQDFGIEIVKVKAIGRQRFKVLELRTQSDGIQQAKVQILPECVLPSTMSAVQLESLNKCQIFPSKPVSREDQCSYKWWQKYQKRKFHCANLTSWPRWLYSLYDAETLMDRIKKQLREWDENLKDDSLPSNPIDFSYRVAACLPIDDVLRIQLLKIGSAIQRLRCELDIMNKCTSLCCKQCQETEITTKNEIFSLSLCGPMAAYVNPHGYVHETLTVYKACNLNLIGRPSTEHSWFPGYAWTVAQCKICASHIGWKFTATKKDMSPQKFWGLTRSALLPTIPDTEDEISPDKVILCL

Consider `C[C@H]1CC2(CCN(c3ccc(C(=O)N4CCC(CN5CCN6c7ccc(N8CCC(=O)NC8=O)cc7OCC[C@H]6C5)CC4)cc3)CC2)CN1c1ccc(C#N)c(C(F)(F)F)c1` [A-P-195], for which the “Degradation rate of AR protein in LNCAP cells” value (“Degradation rate of AR protein” below) at AR protein (10 nM) and on AR protein (100 nM) was “A (degradation rate ≥ 50%)” each time. The values for the pIC50 in the assay with VCaP cell and in the assay with LNCAP cell were 7.89 and 7.00, respectively.

With `COc1cc(O[C@H]2C(C)(C)[C@H](NC(=O)c3ccc(N4CCC(F)(CN5CCN6c7ccc(N8CCC(=O)NC8=O)cc7OCC[C@H]6C5)CC4)cc3)C2(C)C)ccc1C#N` [A-P-196], the “Degradation rate of AR protein” value at AR protein (10 nM) is “B (50%> degradation rate ≥ 20%)”; at AR protein (100 nM), “A (degradation rate ≥ 50%)”. Further, the figures for the pIC50 with VCaP cell and in the assay with LNCAP cell were 9.00 and 6.62, respectively.

As to `C[C@H]1CC2(CCN(c3ccc(C(=O)N4CCC(CN5CCC6(COc7cc(N8CCC(=O)NC8=O)ccc76)C(F)(F)C5)CC4)cc3)CC2)CN1c1ccc(C#N)c(Cl)c1` (some centres unmarked) [A-P-233], the “Degradation rate of AR protein” value at AR protein (10 nM) and on AR protein (100 nM) was “A (degradation rate ≥ 50%)” in each case. In addition, the pIC50 with VCaP cell was 7.82; in the assay with LNCAP cell, 7.11.

In the case of `C[C@H]1CC2(CCN(c3ccc(C(=O)N4CCC(CN5CCC6(CC5)CN(C)c5ccc(N7CCC(=O)NC7=O)cc5O6)CC4)cc3)CC2)CN1c1ccc(C#N)c(Cl)c1` [A-P-235, (S)-2-chloro-4-(8-(4-(4-((7-(2,4-dioxotetrahydropyrimidin-1(2H)-yl)-4-methyl-3,4-dihydrospiro[benzo[b][1,4]oxazin-2,4'-piperidine]-1'-yl)methyl)piperidine-1-carbonyl)phenyl)-3-methyl-2,8-diazaspiro[4.5]decane-2-yl)benzonitrile], the “Degradation rate of AR protein” value on AR protein (10 nM) and on AR protein (100 nM) was “A (degradation rate ≥ 50%)” throughout. Further, the pIC50 is 9.00 in the assay on VCaP cell and less than 4.30 in the assay on LNCAP cell.

On to `COc1cc(O[C@H]2C(C)(C)[C@H](NC(=O)c3ccc(N4CCC(CN5CCN(c6ccc(C(=O)N[C@H]7CCC(=O)NC7=O)c(F)c6)CC5)CC4)cc3)C2(C)C)ccc1C#N` [ARV766, reference compound], for which the “Degradation rate of AR protein” value at AR protein (10 nM) is listed as “B (50%> degradation rate ≥ 20%)”; at AR protein (100 nM) it was “A (degradation rate ≥ 50%)”. In addition, the pIC50 in the assay with VCaP cell was 8.60; in the assay with LNCAP cell, 6.31.
